Results from patent US6551793B1, “Carotenoid-associated proteins useful for high carotenoid accumulation and production in plants and other organisms” (Yissum Research Development Company of the Hebrew …, priority 1996, dated 2003).

Experiments:
Format in all cases: cell-based, Cucumis sativus
CHRC mRNA [1] = assay: In vitro flower bud culture, Northern blot of CHRC mRNA in corollas; conditions: 100 μM ABA, 2 hours
Description: (§1) Young flower buds were cultured in vitro in the presence (GA) or the absence (C) of 100 μM GA3 for up to 48 hours. Northern and Western blot analyses of corollas, cultured for the indicated periods of time, were performed. The Northern blots (25 μg total RNA/lane) were hybridized with ^32P-labeled DNA inserts from CHRC (CHRC), […] (Psy), and 18s rDNA (18S). Western blot analysis (bottom panel of A) was performed using antibodies against CHRC protein (25 μg total protein/lane). The results of the CHRC Northern blot analyses are also shown graphically relative to the mRNA level of the untreated corollas at zero time (0) (arbitrary value of 1).
(§2) Flower buds were cultured in the presence of 100 μm GA3 (GA), 100 μg/ml paclobutrazol following 2 hours of pretreatment with 100 μg/ml paclobutrazol (P), 100 μg/ml paclobutrazol +100 μm GA3 following 2 hours of pretreatment with 100 μg/ml paclobutrazol (P/GA), 100 μM ABA (ABA), or no phytohormones (C). Total RNA was extracted from corollas after 2 hours of treatment. Northern blot analyses were performed and probed as described in the legend to FIG. 7.
(§3) Total RNA and protein were extracted from cucumber corollas of flower buds cultured for 6 hours in the presence of 100 μM GA3 (GA), 50 μM CHX following 2 hours of pretreatment with 50 μM CHX (CHX/GA), or no phytohormones (C). Northern (CHRC, Psy, and 18S) and Western (bottom panel) blot analyses were performed as described above.
In FIG. 10, flower buds were cultured for 2 hours without (0) or with various concentrations of GA3. Total RNA was isolated from corollas, and a Northern blot was probed as above. The results of the CHRC Northern blot analyses are also shown graphically relative to the mRNA level of control corollas cultured without GA3 (arbitrary value of 1).
(§4) This example describes plant material and conditions for in vitro flower bud culture. C. sativus L. plants (cultivar Shimahon, obtained from Zeraim Gadera, Israel) were grown under standard greenhouse conditions. In vitro culture of flower buds was performed at 23° C., under constant light from cool white fluorescent lamps with a photosynthetic photon flux density of 80 μmol/m^2 g, as described previously. Briefly, buds at developmental stage 1 (˜8 mm in length, 120 hours before anthesis) were collected and rinsed several times with sterile water. Buds were then placed for 24 hours on a perforated Parafilm (American National Can, Greenwich, Conn.) covering a Petri dish filled with double-distilled sterile water, such that only the bases of the buds were in contact with the liquid. Following equilibration, buds were transferred to a fresh Petri dish (zero time for the experiments) and treated with GA3, ABA, paclobutrazol, or CHX, as specified in the figure legends.
This example describes conditions used for RNA isolation and Northern blot analysis. Total RNA from corollas of cucumber flower buds was isolated as described previously. RNA (15 and 25 μg) was fractionated through a 1.2% formaldehyde gel and transferred to a Hybond-N^− filter (Amersham Corp.). A random priming kit (Boehringer Mannheim) was used to radioactively labeled DNA probes. The blots were hybridized with ^32P-labeled cucumber CHRC cDNA (Vishnevetsky, et al., Plant Journal, 10: 1111-1118 (1996)) and reprobed with melon phytoene synthase (PSY) cDNA (MEL5), provided by D. Grierson of the Nottingham University, UK. The hybridization for analysis of CHRC expression was carried out in 0.263 M Na2HPO4, 7% SDS, […], 1% BSA for 16 hours at 60° C., and the washes were performed in 2×SSC/0.1% SDS at 50° C. followed by 2×SSC/0.1% SDS at 55° C., for 20 minutes each. Hybridization with the MEL5 probe was carried out at 55° C. using the same procedure. Following the hybridization, the blots were washed in 5×SSC/0.1% SDS at 45° C. for 20 minutes followed by 5×SSC/0.1% SDS at 50° C. and 2×SSC/0.1% SDS at 50° C. for 20 minutes each. […]

Psy mRNA = assay: In vitro flower bud culture, Northern blot of Psy mRNA in corollas; conditions: 100 μM ABA or 100 μg/ml paclobutrazol, 2 hours of treatment
Description: as §1, §2, §3
as §4, with “Following equilibration, buds were transferred to a fresh Petri dish (zero time for the experiments) and treated with GA3, ABA, paclobutrazol, or CHX, as specified in the figure legends.” left out
This example describes conditions used for RNA isolation and Northern blot analysis. […] Autoradiograms were quantified by scanning suitably exposed films in a densitometer (Molecular Dynamics, Sunnyvale, Calif.). The amount of RNA loaded onto the gels was standardized by optical measurement, by quantitation of the ethidium bromide fluorescence of cytoplasmic rRNA. and by the level of hybridization with a DNA fragment coding for cytoplasmic 18S RNA.

CHRD = assay: In vitro flower bud culture, Western blot of CHRD in corollas; conditions: flower buds cultured for 72 hours
Description: CHRD levels in corollas were analyzed by western blotting (10 μg of total protein per lane) using antibodies against CHRD and horseradish peroxidase anti-rabbit IgG in an enhanced chemiluminescence detection system. FIG. 14B is a Western blot analysis of corollas (50 μg of total protein per lane) cultured for the indicated periods with (+) or without (−) GA3. The blot was decorated with antibodies against CHRD and alkaline phosphatase anti-rabbit 1 gG.
In FIG. 15A, antibodies against CHRD or CHRC were used in a western blot analysis of CHRD and CHRC levels, respectively, in corollas cultured for 72 hours in the presence (E) or absence (C) of ethylene (50 μg of total protein per lane). In FIG. 15B, flowers were enclosed in aluminum foil in the greenhouse for 3 days and CHRD levels in etiolated (D) and control, nonetiolated (L) corollas were analyzed by western blotting (50 μg of total protein per lane).
as §4
CHRD protein was isolated from Cucumis sativus as a minor component, immunologically characterised and analyzed in terms of the regulation of its expression by developmental signals using methods and conditions described above for CHRC. […] Carotenoids are known to accumulate in dark.

CHRC mRNA [2] = assay: In vitro flower bud culture, Northern blot of CHRC mRNA in corollas; conditions: 10 μM ABA

CC1=CC(=O)CC(C)(C)[C@@]1(O)/C=C/C(C)=C\C(=O)O [ABA, abscisic acid]
Down-regulation of CHRC mRNA level compared with control corollas (CHRC mRNA [1]): 2.5 times
Effect on Psy mRNA levels (Psy mRNA): Neither ABA nor paclobutrazol markedly affected
CHRD level per unit protein, down-regulation compared with control untreated corollas (CHRD): 2.5±0.3 times
Down-regulation of CHRC expression (CHRC mRNA [2]): only slightly down-regulated
